ChEMBL document CHEMBL1201862, “PubChem BioAssay data set” (2004)
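Exposure lasted 48 hours, with cells grown in 96-well plates and compounds tested at five concentrations. GI50 marks 50% less growth.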 Calls of active or inactive are those of the source. Rule as the data show it: active = GI50 up to about 1.1 µM and inactive = higher. Non-standard residues stand in square brackets, D forms with d. Residues, ends and D or L forms follow the SMILES beside them. ξ: configuration not given here. *: point of attachment. ξHyp = O=C(O)C1CC(O)CN1; Cbz = O=C(OCc1ccccc1)*

Columns and labels:
Assay in all cases: NCI tumour cell line growth inhibition, 48 h
786-0 = system: 786-0
DU-145 = system: DU-145
HOP-92 = system: HOP-92
Hs-578T = system: Hs-578T
M14 = system: M14
MCF7 = system: MCF7
MOLT-4 = system: MOLT-4
OVCAR-5 = system: OVCAR-5
OVCAR-8 = system: OVCAR-8
SF-268 = system: SF-268
SNB-19 = system: SNB-19
SW-620 = system: SW-620
BT-549 = system: BT-549
Malme-3M = system: Malme-3M
NCI-H23 = system: NCI-H23
T47D = system: T47D
SF-539 = system: SF-539
DLD-1 = system: DLD-1
DMS-114 = system: DMS-114
M19-MEL = system: M19-MEL

Measured: GI50

CC(=O)Nc1oc(C)nc1C#N
inactive: 786-0 > 100 µM | DU-145 > 100 µM | HOP-92 > 100 µM | Hs-578T > 100 µM | M14 > 100 µM | MCF7 > 100 µM | MOLT-4 > 100 µM | OVCAR-5 > 100 µM | OVCAR-8 > 100 µM | SF-268 > 100 µM | SNB-19 > 100 µM | SW-620 > 100 µM

CCCC[C@H]1[C@@H](OCOc2ccccc2)COC(=O)N1[C@H](C)c1ccccc1
inactive: BT-549 19.7 µM | DU-145 21.5 µM | HOP-92 18.1 µM | Hs-578T 20.5 µM | M14 12.6 µM | MCF7 11.2 µM | MOLT-4 4.54 µM | Malme-3M 15.7 µM | NCI-H23 18.2 µM | OVCAR-5 17.3 µM | OVCAR-8 > 49.2 µM | SF-268 16.6 µM | SNB-19 21.3 µM | SW-620 32.1 µM | T47D 11.3 µM

N#CCCC1(CCC#N)CCCCCCC(CCC#N)(CCC#N)C(O)C1O (centres undefined)
inactive: 786-0 > 100 µM | DU-145 > 100 µM | HOP-92 > 100 µM | M14 > 100 µM | MCF7 > 100 µM | Malme-3M > 100 µM | NCI-H23 > 100 µM | OVCAR-5 > 100 µM | OVCAR-8 > 100 µM | SF-268 > 100 µM | SF-539 > 100 µM | SNB-19 > 100 µM | SW-620 > 100 µM | T47D > 100 µM

CCOC(=O)CCc1c(C)c2c(OC(C)=O)cc(OC(C)=O)cc2oc1=O
inactive: 786-0 78.7 µM | DLD-1 46 µM | DMS-114 23.4 µM | HOP-92 6.9 µM | M14 43 µM | M19-MEL 61.9 µM | Malme-3M 20.7 µM | NCI-H23 44.8 µM | OVCAR-5 > 100 µM | OVCAR-8 69.3 µM | SF-268 23.3 µM | SF-539 70 µM | SNB-19 65.9 µM | SW-620 45.7 µM

CCOC(=O)C(O)(NC(=O)c1ccc(F)cc1)C(F)(F)F (centres undefined)
inactive: BT-549 > 100 µM | DU-145 > 100 µM | HOP-92 > 100 µM | Hs-578T > 100 µM | M14 > 100 µM | MCF7 > 100 µM | MOLT-4 > 100 µM | Malme-3M > 100 µM | NCI-H23 > 100 µM | OVCAR-5 > 100 µM | OVCAR-8 > 100 µM | SF-268 > 100 µM | SF-539 > 100 µM | SNB-19 > 100 µM | SW-620 > 100 µM | T47D > 100 µM

CC(/C=N/N=C(N)N)=N\N=C(N)N
inactive: BT-549 243 µM | DLD-1 48.9 µM | DMS-114 16.8 µM | DU-145 46.6 µM | HOP-92 3.43 µM | Hs-578T 33.2 µM | M14 43.6 µM | MCF7 27.4 µM | MOLT-4 9.25 µM | Malme-3M 33.9 µM | NCI-H23 18.5 µM | OVCAR-8 4.55 µM | SF-268 3.56 µM | SF-539 8.04 µM | SNB-19 36.1 µM | SW-620 7.21 µM | T47D 1.91 µM

C/N=C1\S/C(=N\c2ccc(N(C)C)cc2)N1C
inactive: 786-0 42.8 µM | DLD-1 29.8 µM | DMS-114 17.9 µM | HOP-92 21.8 µM | M14 33.1 µM | M19-MEL 38 µM | MOLT-4 43 µM | Malme-3M 39.9 µM | NCI-H23 32.1 µM | OVCAR-5 75.5 µM | OVCAR-8 35.1 µM | SF-268 24.9 µM | SF-539 32.1 µM | SNB-19 42.2 µM | SW-620 38.1 µM

CCN(CC)CCOC(=O)c1ccc(N)cc1.CCOC(=O)Nc1ccc(S(=O)(=O)OC)cc1.CCOC(=O)Nc1ccc(S(=O)(=O)OC)cc1.Nc1ccc(C(=O)O)c(O)c1
inactive: 786-0 > 100 µM | DLD-1 > 100 µM | DMS-114 > 100 µM | HOP-92 > 100 µM | M14 > 100 µM | M19-MEL > 100 µM | MOLT-4 > 100 µM | Malme-3M > 100 µM | NCI-H23 > 100 µM | OVCAR-5 > 100 µM | OVCAR-8 > 100 µM | SF-268 > 100 µM | SF-539 > 100 µM | SNB-19 > 100 µM | SW-620 > 100 µM

O=C(O)C1CCCCN1C(=O)c1ccccc1 (centres undefined)
inactive: 786-0 > 100 µM | DLD-1 > 100 µM | DMS-114 > 100 µM | HOP-92 > 100 µM | M14 > 100 µM | M19-MEL > 100 µM | MOLT-4 > 100 µM | Malme-3M > 100 µM | NCI-H23 > 100 µM | OVCAR-5 > 100 µM | OVCAR-8 > 100 µM | SF-268 > 100 µM | SF-539 > 100 µM | SNB-19 > 100 µM | SW-620 > 100 µM

CC1=NN(C(=O)c2cc(Cl)cc([N+](=O)[O-])c2)C(=O)C1/N=N/c1ccccc1C(=O)O (centres undefined)
inactive: 786-0 > 100 µM | DLD-1 > 100 µM | M19-MEL > 100 µM | MOLT-4 > 100 µM | Malme-3M > 100 µM | NCI-H23 > 100 µM | OVCAR-5 > 100 µM | OVCAR-8 > 100 µM | SF-268 > 100 µM | SF-539 > 100 µM | SNB-19 > 100 µM | SW-620 > 100 µM

COc1cc(C(C)O)c(S(=O)(=O)CC(C)O)nn1 (centres undefined)
inactive: BT-549 > 100 µM | DU-145 > 100 µM | HOP-92 > 100 µM | Hs-578T > 100 µM | M14 > 100 µM | MCF7 > 100 µM | MOLT-4 77.4 µM | Malme-3M > 100 µM | NCI-H23 > 100 µM | OVCAR-5 > 100 µM | OVCAR-8 > 100 µM | SF-539 > 100 µM | SNB-19 > 100 µM | SW-620 > 100 µM

NC(=O)CNC(=O)C1CC(O)CN1C(=O)OCc1ccccc1 (centres undefined) (Cbz-[ξHyp]-Gly-NH2)
inactive: 786-0 > 100 µM | BT-549 > 100 µM | DU-145 > 100 µM | Hs-578T > 100 µM | M14 > 100 µM | MCF7 > 100 µM | MOLT-4 > 100 µM | Malme-3M > 100 µM | NCI-H23 > 100 µM | OVCAR-5 > 100 µM | OVCAR-8 > 100 µM | SF-268 74.6 µM | SNB-19 > 100 µM | SW-620 > 100 µM | T47D > 100 µM

COc1cccc(N2C(=O)C3c4[nH]c5ccc(C)cc5c4C4CCC(C(C)(C)C)CC4C3C2=O)c1 (centres undefined)
inactive: DU-145 > 10 µM | Hs-578T 3.19 µM | M14 8 µM | MCF7 2.99 µM | MOLT-4 1.97 µM | Malme-3M > 10 µM | NCI-H23 2.24 µM | OVCAR-5 3.3 µM | OVCAR-8 2.58 µM | SF-268 4.73 µM | SF-539 2.86 µM | SNB-19 > 10 µM | SW-620 3.88 µM | T47D 7.28 µM

Cc1ccccc1OCC(COC(=O)Nc1ccccc1)OC(=O)Nc1ccccc1 (centres undefined)
inactive: DLD-1 28.8 µM | DMS-114 42.6 µM | HOP-92 10.9 µM | M14 28.1 µM | M19-MEL 31.1 µM | MOLT-4 3.49 µM | Malme-3M 30.9 µM | NCI-H23 54 µM | OVCAR-5 > 100 µM | OVCAR-8 26.5 µM | SF-268 50.9 µM | SF-539 4.15 µM | SNB-19 22.1 µM | SW-620 52.8 µM

Cc1[nH]c(=O)[nH]c(=O)c1C(=O)N(CCO)Cc1ccccc1
inactive: BT-549 > 100 µM | DU-145 > 100 µM | HOP-92 27 µM | Hs-578T 14.2 µM | M14 > 100 µM | MCF7 > 100 µM | MOLT-4 > 100 µM | Malme-3M > 100 µM | NCI-H23 33 µM | OVCAR-5 > 100 µM | SF-268 > 100 µM | SF-539 > 100 µM | SNB-19 > 100 µM | SW-620 > 100 µM | T47D > 100 µM

CC1=C[C@]2(CC(C)C3C(CC4(C)C5CCC6C(C)(C)C(=O)CC[C@@]67C[C@@]57CC[C@]34C)O2)OC1=O (some centres undefined)
inactive: DLD-1 11 µM | DMS-114 3.81 µM | HOP-92 18.1 µM | M14 47.3 µM | MOLT-4 10.7 µM | Malme-3M 44.4 µM | NCI-H23 7.64 µM | OVCAR-5 2.21 µM | OVCAR-8 25.2 µM | SF-268 33.9 µM | SF-539 13.8 µM | SNB-19 15.7 µM | SW-620 12.6 µM

CCc1cc2c(cc1CCCC(=O)O)CC1(Cc3ccc(C(=O)O)cc3C1)C2 (centres undefined)
inactive: 786-0 > 100 µM | DU-145 > 100 µM | HOP-92 > 100 µM | Hs-578T > 100 µM | M14 > 100 µM | MCF7 > 100 µM | MOLT-4 > 100 µM | Malme-3M > 100 µM | NCI-H23 > 100 µM | OVCAR-5 > 100 µM | OVCAR-8 > 100 µM | SF-268 > 100 µM | SF-539 > 100 µM | SNB-19 > 100 µM | SW-620 > 100 µM | T47D > 100 µM

COc1cc([C@@H]2c3cc4c(c(O[C@@H]5O[C@H]6CO[C@@H](C)O[C@H]6[C@H](O)[C@@H]5O)c3C[C@H]3COC(=O)[C@@H]32)OCO4)cc(OC)c1O
inactive: DLD-1 27.7 µM | DMS-114 3.79 µM | HOP-92 25.7 µM | M19-MEL 20.5 µM | MCF7 4.15 µM | MOLT-4 10.6 µM | Malme-3M > 29.9 µM | NCI-H23 15.1 µM | OVCAR-5 97.1 µM | OVCAR-8 6.64 µM | SF-539 2.81 µM | SNB-19 23.7 µM | SW-620 8.3 µM
